The values below come from patent publication EP4559923A1, “ANTIHISTAMINE COMPOUND, AND PREPARATION METHOD THEREFOR AND USE THEREOF” (HC Synthetic Pharmaceutical Co., Ltd., priority 2022, dated 2024).

The test system of one assay is histamine-induced asthma. Kind of assay: Antiasthmatic effect on histamine-induced asthma in guinea pigs (latency period). The format is in vivo. Conditions: X±s, n = 5; for Post-administration latency period: 1 mg/kg oral gavage, sixty minutes after administration, histamine hydrochloride spray, no asthma within 8 minutes counted as 8 minutes; for Pre-administration latency period: baseline before dosing, histamine hydrochloride spray 0.8 mg/mL for 40 seconds. Here is the method:
The guinea pigs were placed in a polymethyl methacrylate bell jar and a histamine hydrochloride solution was sprayed ultrasonically (0.8 mg/mL) for 40 seconds. The time point at which the guinea pigs developed asthma was recorded. The time of convulsion and fall was taken as the latency period. Guinea pigs with a latency period exceeding 180 seconds were not selected. […] The guinea pigs were administered by oral gavage at a dose of 2 mL/kg·bw. Sixty minutes after the administration, the guinea pigs were placed in bell jars, and histamine hydrochloride solution was sprayed under the same conditions as in the previous selection. The latency period for the onset of asthma was recorded. […] The results were processed statistically.

In assay [1] the test system is isolated ileal smooth muscle. Kind of assay: Muscle tone of isolated ileal smooth muscle of guinea pigs, compound alone. Conditions: Table 3, no histamine, X±s, n = 8; for Smooth muscle tone (g) After administration: 5 minutes after adding the drug; for Smooth muscle tone (g) Before administration: before adding the drug; for Antispasmodic percentage (%): relative to tone before adding compound, 5 min. Here is the method:
(§1) The guinea pig was knocked unconscious with a wooden stick, and the abdomen was immediately dissected to separate the ileum about 15 cm in length. The contents of the intestinal segment were flushed with Tyrode's solution and placed in Tyrode's solution at a constant temperature of 37°C for later use, and oxygen was supplied simultaneously. The experimental intestinal tract (1 cm in length) was cut and placed into 20 ml of Tyrode's solution at a constant temperature of 37°C with a continuous oxygen supply. One end of the intestine was fixed on the ventilation hook and the other end was connected to the muscle tone transducer and led to the computer interface. The muscle tone value of the ileal smooth muscle was recorded with a BL system. The experiment was carried out after the intestinal segment contraction became stable.
After the ileum contraction curve stabilized, the tone values before adding the drug were recorded, then the drug or DMSO was added, and the average tone value of the ileum contraction curve at that point was recorded 5 minutes later. The operation was repeated 8 times. The antispasmodic percentage was calculated according to the following formula. Antispasmodic percentage =; (Tone value before adding subject compound−Tone value after adding subject compound)/(Tone value before adding subject compound) × 100% [formula]

The subject of a further assay is histamine. In words: Muscle tone of isolated ileal smooth muscle of guinea pigs contracted with histamine. Conditions: Table 4, x±s, n = 8; for Smooth muscle tone (g) After addition of histamine: after 0.05 mL of histamine, before compound; for Smooth muscle tone (g) Before administration: before histamine and compound; for Antispasmodic percentage (%): relative to tone after adding histamine, 3 min. Here is the method: as §1
(§2) After the ileal peristalsis curve stabilized, the tone values before adding the compound were recorded, and then 0.05 mL of histamine was added. […] The operation was repeated 8 times. The antispasmodic percentage was calculated using the following equation. Antispasmodic percentage; = (Tone value after adding histamine−Tone value after adding subject compound)/(Tone value after adding histamine) × 100% [formula]

Assay in assay [2]: as above
The settings on record: Table 4; 3 minutes after adding 0.05 mL compound at maximum histamine contraction; x±s, n = 8. Here is the method:
as §1, §2

In the case of `O=P(O)(O)OCN1CCC(=C2c3ccc(Cl)cc3CCc3cccnc32)CC1` [Compound III-1], in the assay with histamine-induced asthma, the “Post-administration latency period” value came out at 388.39 ± 53.23 s and the “Pre-administration latency period” value was determined as 99.34 ± 49.57 s. In assay [1], the “Smooth muscle tone (g) After administration” value stood at 1.10 ± 0.22 g, the “Smooth muscle tone (g) Before administration” value was 1.74 ± 0.19 g and the “Antispasmodic percentage (%)” value turned out to be 36.78±18.11%. Also, in the assay with histamine, the “Smooth muscle tone (g) After addition of histamine” value (“Smooth muscle tone … of histamine” for short) amounted to 3.44 ± 1.10 g, the “Smooth muscle tone (g) Before administration” value turned out to be 1.81 ± 0.19 g and the “Antispasmodic percentage (%)” value is reported as 67.44±15.23%. For the same compound, the “Smooth muscle tone (g) After administration” value in assay [2] came to 1.12 ± 0.25 g.

Consider `O=P(O)(O)OCN1CCC(=C2c3ccc(F)cc3CCc3cccnc32)CC1` [Compound III-2], for which, in the assay with histamine-induced asthma, the “Post-administration latency period” value stood at 367.77 ± 50.21 s and the “Pre-administration latency period” value was 98.81 ± 50.32 s. Besides, in assay [1], the “Smooth muscle tone (g) After administration” value was found to be 1.15 ± 0.20 g, the “Smooth muscle tone (g) Before administration” value was determined as 1.72 ± 0.23 g and the “Antispasmodic percentage (%)” value is 33.14±15.19%. For the same compound, in the assay with histamine, the “Smooth muscle tone … of histamine” value came to 3.40 ± 0.99 g, the “Smooth muscle tone (g) Before administration” value amounted to 1.75 ± 0.16 g and the “Antispasmodic percentage (%)” value turned out to be 67.65±17.99%. In addition, the “Smooth muscle tone (g) After administration” value in assay [2] came out at 1.10 ± 0.19 g.

Turning to `O=P(O)(O)OCN1CCC(=C2c3ccc(Br)cc3CCc3cccnc32)CC1` [Compound III-3], the “Antispasmodic percentage (%)” value in assay [1] is given as 29.82±18.20%; in the assay with histamine, 66.28±16.30%. Moreover, the “Smooth muscle tone … of histamine” value in the assay with histamine came out at 3.50 ± 1.19 g.

Take `O=P(O)(O)OCCN1CCC(=C2c3ccc(Cl)cc3CCc3cccnc32)CC1` [Compound III-4]: in the assay on histamine-induced asthma, the “Post-administration latency period” value came to 366.40 ± 50.23 s and the “Pre-administration latency period” value is 97.99 ± 50.18 s. Further, in assay [1], the “Smooth muscle tone (g) After administration” value was determined as 1.17 ± 0.21 g, the “Smooth muscle tone (g) Before administration” value worked out at 1.70 ± 0.20 g and the “Antispasmodic percentage (%)” value was 31.17±20.11%. In the assay on histamine, the “Smooth muscle tone … of histamine” value was determined as 3.48 ± 0.98 g, the “Smooth muscle tone (g) Before administration” value worked out at 1.75 ± 0.18 g and the “Antispasmodic percentage (%)” value is 65.23±19.91%. Further, the “Smooth muscle tone (g) After administration” value in assay [2] came out at 1.21 ± 0.20 g.

For `O=P(O)(O)OCCN1CCC(=C2c3ccc(F)cc3CCc3cccnc32)CC1` [Compound III-5], in the assay on histamine-induced asthma, the “Post-administration latency period” value came out at 371.19 ± 44.59 s and the “Pre-administration latency period” value was found to be 100.10 ± 43.29 s. In assay [1], the “Smooth muscle tone (g) After administration” value is 1.18 ± 0.22 g, the “Smooth muscle tone (g) Before administration” value amounted to 1.73 ± 0.21 g and the “Antispasmodic percentage (%)” value was found to be 31.79±16.94%. In the assay with histamine, the “Smooth muscle tone … of histamine” value came out at 3.40 ± 0.83 g, the “Smooth muscle tone (g) Before administration” value came to 1.79 ± 0.20 g and the “Antispasmodic percentage (%)” value worked out at 65.58±20.01%. Moreover, the “Smooth muscle tone (g) After administration” value in assay [2] was found to be 1.17 ± 0.23 g.

As to `O=P(O)(O)OCCN1CCC(=C2c3ccc(Br)cc3CCc3cccnc32)CC1` [Compound III-6], in the assay with histamine-induced asthma, the “Post-administration latency period” value was found to be 373.29 ± 50.22 s and the “Pre-administration latency period” value was determined as 95.26 ± 48.88 s. In assay [1], the “Smooth muscle tone (g) After administration” value worked out at 1.16 ± 0.27 g, the “Smooth muscle tone (g) Before administration” value came to 1.72 ± 0.20 g and the “Antispasmodic percentage (%)” value worked out at 32.56±17.27%. Also, in the assay with histamine, the “Smooth muscle tone … of histamine” value is 3.47 ± 0.90 g, the “Smooth muscle tone (g) Before administration” value worked out at 1.83 ± 0.18 g and the “Antispasmodic percentage (%)” value stood at 65.42±17.83%. For the same compound, in assay [2], the “Smooth muscle tone (g) After administration” value worked out at 1.20 ± 0.20 g.

For the compound `O=P(O)(O)OCCCN1CCC(=C2c3ccc(F)cc3CCc3cccnc32)CC1` [Compound III-8], the “Smooth muscle tone (g) After administration” value came out at 1.14 ± 0.23 g in assay [1] and 1.16 ± 0.25 g in assay [2]. Also, the “Antispasmodic percentage (%)” value was 33.72±19.01% in assay [1] and 66.47±18.83% with histamine.

Consider `O=P(O)(O)OCCCN1CCC(=C2c3ccc(Br)cc3CCc3cccnc32)CC1` [Compound III-9], for which the “Post-administration latency period” value with histamine-induced asthma turned out to be 362.84 ± 53.77 s. The results for the “Smooth muscle tone (g) After administration” value in assay [1] and in assay [2] were 1.18 ± 0.25 g and 1.14 ± 0.26 g, respectively. Besides, the “Antispasmodic percentage (%)” value in assay [1] stood at 30.59±20.02%; in the assay on histamine, 67.33±19.34%.

`O=P(O)(O)OCCCCN1CCC(=C2c3ccc(F)cc3CCc3cccnc32)CC1` [Compound III-11]: the “Post-administration latency period” value with histamine-induced asthma was determined as 373.33 ± 50.81 s. Also, the “Smooth muscle tone (g) After administration” value in assay [1] stood at 1.17 ± 0.22 g; in assay [2] it was 1.16 ± 0.20 g. The “Antispasmodic percentage (%)” value in the assay with histamine came to 66.37±17.33%.

As to `O=P(O)(O)OCCCCN1CCC(=C2c3ccc(Br)cc3CCc3cccnc32)CC1` [Compound III-12], in the assay on histamine-induced asthma, the “Post-administration latency period” value was 359.80 ± 51.47 s and the “Pre-administration latency period” value was 99.91 ± 49.45 s. In assay [1], the “Smooth muscle tone (g) After administration” value stood at 1.25 ± 0.21 g, the “Smooth muscle tone (g) Before administration” value is 1.74 ± 0.23 g and the “Antispasmodic percentage (%)” value is 28.16±21.10%. In addition, in the assay on histamine, the “Smooth muscle tone … of histamine” value worked out at 3.45 ± 0.94 g, the “Smooth muscle tone (g) Before administration” value came out at 1.82 ± 0.21 g and the “Antispasmodic percentage (%)” value stood at 64.92±17.49%. Further, the “Smooth muscle tone (g) After administration” value in assay [2] is 1.21 ± 0.23 g.

With `O=P(O)(O)OCCCCCN1CCC(=C2c3ccc(Br)cc3CCc3cccnc32)CC1` [Compound III-15], in the assay with histamine-induced asthma, the “Post-administration latency period” value came out at 359.61 ± 50.22 s and the “Pre-administration latency period” value turned out to be 99.11 ± 51.09 s. In addition, in assay [1], the “Smooth muscle tone (g) After administration” value was 1.13 ± 0.20 g, the “Smooth muscle tone (g) Before administration” value came to 1.74 ± 0.22 g and the “Antispasmodic percentage (%)” value was 35.05±18.37%. In the assay on histamine, the “Smooth muscle tone … of histamine” value came out at 3.40 ± 0.89 g, the “Smooth muscle tone (g) Before administration” value was 1.80 ± 0.20 g and the “Antispasmodic percentage (%)” value was 65.59±18.88%. Besides, the “Smooth muscle tone (g) After administration” value in assay [2] stood at 1.17 ± 0.23 g.

For the compound `O=P(O)(O)OCOCCN1CCC(=C2c3ccc(Cl)cc3CCc3cccnc32)CC1` [Compound III-16], in the assay on histamine-induced asthma, the “Post-administration latency period” value worked out at 363.23 ± 50.55 s and the “Pre-administration latency period” value was found to be 95.92 ± 50.22 s. Further, in assay [1], the “Smooth muscle tone (g) After administration” value was found to be 1.15 ± 0.24 g, the “Smooth muscle tone (g) Before administration” value amounted to 1.72 ± 0.20 g and the “Antispasmodic percentage (%)” value was determined as 33.14±18.54%. In the assay on histamine, the “Smooth muscle tone … of histamine” value stood at 3.42 ± 0.92 g, the “Smooth muscle tone (g) Before administration” value is 1.83 ± 0.21 g and the “Antispasmodic percentage (%)” value was found to be 65.49±19.23%. For the same compound, in assay [2], the “Smooth muscle tone (g) After administration” value stood at 1.18 ± 0.25 g.

As for `O=P(O)(O)OCOCCCN1CCC(=C2c3ccc(Cl)cc3CCc3cccnc32)CC1` [Compound III-17], in the assay on histamine-induced asthma, the “Post-administration latency period” value amounted to 360.28 ± 51.00 s and the “Pre-administration latency period” value was 96.93 ± 53.19 s. Besides, in assay [1], the “Smooth muscle tone (g) After administration” value was found to be 1.14 ± 0.28 g, the “Smooth muscle tone (g) Before administration” value was 1.71 ± 0.23 g and the “Antispasmodic percentage (%)” value amounted to 33.33±19.10%. Also, in the assay on histamine, the “Smooth muscle tone … of histamine” value is 3.41 ± 0.84 g, the “Smooth muscle tone (g) Before administration” value was determined as 1.83 ± 0.25 g and the “Antispasmodic percentage (%)” value is on record as 65.10±19.10%. In addition, the “Smooth muscle tone (g) After administration” value in assay [2] stood at 1.19 ± 0.29 g.

Regarding `O=P(O)(O)OCOCCCCCN1CCC(=C2c3ccc(Cl)cc3CCc3cccnc32)CC1` [Compound III-19], in the assay on histamine-induced asthma, the “Post-administration latency period” value came out at 355.71 ± 50.33 s and the “Pre-administration latency period” value is 98.46 ± 52.04 s. In assay [1], the “Smooth muscle tone (g) After administration” value was 1.15 ± 0.24 g, the “Smooth muscle tone (g) Before administration” value was found to be 1.72 ± 0.25 g and the “Antispasmodic percentage (%)” value is 33.13±19.91%. For the same compound, in the assay with histamine, the “Smooth muscle tone … of histamine” value was determined as 3.43 ± 0.94 g, the “Smooth muscle tone (g) Before administration” value worked out at 1.82 ± 0.21 g and the “Antispasmodic percentage (%)” value came out at 65.59±18.97%. In assay [2], the “Smooth muscle tone (g) After administration” value came out at 1.18 ± 0.28 g.
